Earlier results, collected in PMC3388044, “Probing of Exosites Leads to Novel Inhibitor Scaffolds of HCV NS3/4A Proteinase” (PLoS ONE, 2012).
Where two headings read alike, the source gives them in different places.

Columns and labels:
[1] = test system: HCV replicon (NS3/4A A156T); conditions: cited from earlier work
[2] = test system: HCV replicon (NS3/4A R155K); conditions: mutant HCV replicon with luciferase readout; cited from earlier work
[3] = test system: HCV replicon (NS3/4A D168A); conditions: cited from earlier work
[4] = test system: HCV replicon (WT NS3/4A); conditions: HCV replicon with luciferase readout; cited from earlier work
[5] = test system: NS3/4A V36M; conditions: cited from earlier work
[6] = test system: NS3/4A R155K; conditions: cited from earlier work
[7] = test system: NS3/4A (WT); conditions: purified recombinant WT NS3/4A in vitro; read-out: WT IC50 (purified enzyme); cited from earlier work
[8] = target: NS3/4A; parameters: method as in PMID 19505593; conditions: cited from earlier work
[9] = test system: HCV replicon (NS3/4A V36M); conditions: mutant HCV replicon with luciferase readout; cited from earlier work
[10] = test system: NS3/4A D168A; conditions: cited from earlier work
[11] = fold change vs WT, mutant HCV replicon
[12] = mutant HCV replicon with luciferase readout
[13] = fold change vs WT, purified recombinant enzyme

## CCC[C@H](NC(=O)[C@@H]1[C@H]2CCC[C@H]2CN1C(=O)[C@@H](NC(=O)[C@@H](NC(=O)c1cnccn1)C1CCCCC1)C(C)(C)C)C(=O)C(=O)NC1CC1 [Telaprevir, telaprevir]
[1]; [11]
  A156T FC (replicon): 105
[1]; [12]
  IC50: 20300 nM
[2]
  IC50: 1470 nM
[3]; [11]
  D168A FC (replicon): 0.4
[3]; [12]
  IC50: 46 nM
[4]
  IC50: 150 nM
[5]; [13]
  V36M FC (purified enzyme): 11.3
[5]; purified recombinant mutant NS3/4A in vitro, read-out: V36M IC50 (purified enzyme)
  IC50: 270 nM
[6]; [13]
  R155K FC (purified enzyme): 4.8
[6]; purified recombinant mutant NS3/4A in vitro, read-out: R155K IC50 (purified enzyme)
  IC50: 115 nM
[7]
  IC50: 24 nM
[8]; improved KI after fast covalent bond formation, read-out: KI after covalent bond formation
  Ki: ~40 nM
[8]; initial non-covalent binding step, read-out: KI, non-covalent binding step
  Ki: ~6000 nM
[9]
  IC50: 886 nM
[10]; [13]
  D168A FC (purified enzyme): 0.4
[10]; purified recombinant mutant NS3/4A in vitro, read-out: D168A IC50 (purified enzyme)
  IC50: 9 nM
